# Data from patent US8343993B2, “Hydroxyalkyl substituted imidazonaphthyridines” (3M Innovative Properties Company, priority 2005, dated 2013).
# Like-named read-outs stand apart in the source and are kept apart here.
# Experiments:
# IFN-α = test: Cytokine induction in human cells (PBMC): IFN-α secreted into culture media, ELISA; format: cell-based; conditions: 30-0.014 μM, lowest concentration inducing over 20 pg/mL, median where several experiments, read-out: Minimum Effective Concentration IFN
# Source text: (§1) An in vitro human blood cell system is used to assess cytokine induction. Activity is based on the measurement of interferon (α) and tumor necrosis factor (α) (IFN-α, and TNF-α, respectively) secreted into culture media as described by Testerman et. al. in “Cytokine Induction by the Immunomodulators Imiquimod and S-27609”, Journal of Leukocyte Biology, 58, 365-372 (September, 1995).
# (§2) Whole blood from healthy human donors is collected by venipuncture into vacutainer tubes or syringes containing EDTA. Peripheral blood mononuclear cells (PBMC) are separated from whole blood by density gradient centrifugation using HISTOPAQUE-1077 (Sigma, St. Louis, Mo.) or Ficoll-Paque Plus (Amersham Biosciences Piscataway, N.J.). Blood is diluted 1:1 with Dulbecco's Phosphate Buffered Saline (DPBS) or Hank's Balanced Salts Solution (HBSS). Alternately, whole blood is placed in Accuspin (Sigma) or LeucoSep (Greiner Bio-One, Inc., Longwood Fla.) centrifuge frit tubes containing density gradient medium. The PBMC layer is collected and washed twice with DPBS or HBSS and re-suspended at 4×10^6 cells/mL in RPMI complete. The PBMC suspension is added to 96 well flat bottom sterile tissue culture plates containing an equal volume of RPMI complete media containing test compound.
# (§3) The compounds are solubilized in dimethyl sulfoxide (DMSO). The DMSO concentration should not exceed a final concentration of 1% for addition to the culture wells. The compounds are generally tested at concentrations ranging from 30-0.014 μM. Controls include cell samples with media only, cell samples with DMSO only (no compound), and cell samples with reference compound.
# (§4) The solution of test compound is added at 60 μM to the first well containing RPMI complete and serial 3 fold dilutions are made in the wells. The PBMC suspension is then added to the wells in an equal volume, bringing the test compound concentrations to the desired range (usually 30-0.014 μM). The final concentration of PBMC suspension is 2×10^6 cells/mL. The plates are covered with sterile plastic lids, mixed gently and then incubated for 18 to 24 hours at 37° C. in a 5% carbon dioxide atmosphere.
# (§5) Following incubation the plates are centrifuged for 10 minutes at 1000 rpm (approximately 200×g) at 4° C. The cell-free culture supernatant is removed and transferred to sterile polypropylene tubes. Samples are maintained at −30 to −70° C. until analysis. The samples are analyzed for IFN-α by ELISA and for TNF-α by IGEN/BioVeris Assay.
# IFN-α concentration is determined with a human multi-subtype colorimetric sandwich ELISA (Catalog Number 41105) from PBL Biomedical Laboratories, Piscataway, N.J. Results are expressed in pg/mL.
# Analysis of the data has two steps. First, the greater of the mean DMSO (DMSO control wells) or the experimental background (usually 20 pg/mL for IFN-α and 40 pg/mL for TNF-α) is subtracted from each reading. If any negative values result from background subtraction, the reading is reported as “*” and is noted as not reliably detectable. In subsequent calculations and statistics, “*” is treated as a zero. Second, all, background subtracted values are multiplied by a single adjustment ratio to decrease experiment to experiment variability. The adjustment ratio is the area of the reference compound in the new experiment divided by the expected area of the reference compound based on the past 61 experiments (unadjusted readings). […] The reference compound used is 2-[4-amino-2-ethoxymethyl-6,7,8,9-tetrahydro-α,α-dimethyl-1H-imidazo[4,5-c]quinolin-1-yl]ethanol hydrate (U.S. Pat. No. 5,352,784; Example 91) and the expected area is the sum of the median dose values from the past 61 experiments.
# The minimum effective concentration is calculated based on the background-subtracted, reference-adjusted results for a given experiment and compound. […]
# TNF-α = test: Cytokine induction in human cells (PBMC): TNF-α secreted into culture media, ORIGEN M-Series immunoassay; format: cell-based; conditions: median where several experiments; for minimal effective concentration: 30-0.014 μM, lowest concentration inducing over 40 pg/mL, read-out: Minimum Effective Concentration TNF; for Maximal Response TNF: Table 4, background-subtracted, reference-adjusted, * = below background
# Source text: as §1, §2, §3, §4, §5
# The TNF-α concentration is determined by ORIGEN M-Series Immunoassay and read on an IGEN M-8 analyzer from BioVeris Corporation, formerly known as IGEN International, Gaithersburg, Md. The immunoassay uses a human TNF-α capture and detection antibody pair (Catalog Numbers AHC3419 and AHC3712) from Biosource International, Camarillo, Calif. Results are expressed in pg/mL.
# Analysis of the data has two steps. First, the greater of the mean DMSO (DMSO control wells) or the experimental background (usually 20 pg/mL for IFN-α and 40 pg/mL for TNF-α) is subtracted from each reading. If any negative values result from background subtraction, the reading is reported as “*” and is noted as not reliably detectable. In subsequent calculations and statistics, “*” is treated as a zero. Second, all, background subtracted values are multiplied by a single adjustment ratio to decrease experiment to experiment variability. The adjustment ratio is the area of the reference compound in the new experiment divided by the expected area of the reference compound based on the past 61 experiments (unadjusted readings). […] The reference compound used is 2-[4-amino-2-ethoxymethyl-6,7,8,9-tetrahydro-α,α-dimethyl-1H-imidazo[4,5-c]quinolin-1-yl]ethanol hydrate (U.S. Pat. No. 5,352,784; Example 91) and the expected area is the sum of the median dose values from the past 61 experiments. […]
melting point,SMILES,"minimal effective concentration (IFN-α; Table 4, 18 to 24 hours)","minimal effective concentration (TNF-α; Table 4, 18 to 24 hours)",Maximal Response TNF (TNF-α),"minimal effective concentration (IFN-α; Table 3, 18 to 24 hours)","minimal effective concentration (TNF-α; Table 3, 18 to 24 hours)"
240 to 241 °C,"CC(C)(F)Cn1c(CO)nc2c(N)nc3cccnc3c21 [Example 14, [4-Amino-1-(2-fluoro-2-methylpropyl)-1H-imidazo[4,5-c][1,5]naphthyridin-2-yl]methanol]",1.11 µM,3.33 µM,,,
224 to 225 °C,"CC(C)(F)Cn1c(CCO)nc2c(N)nc3cccnc3c21 [Example 15, 2-[4-Amino-1-(2-fluoro-2-methylpropyl)-1H-imidazo[4,5-c][1,5]naphthyridin-2-yl]ethanol]",1.11 µM,10 µM,,,
226 to 228 °C,"CC(C)Cn1c(CO)nc2c(N)nc3cccnc3c21 [Example 96, [4-Amino-1-(2-methylpropyl)-1H-imidazo[4,5-c][1,5]naphthyridin-2-yl]methanol]",1.11 µM,30 µM,,,

# Further lines, the compound ahead of its results:
SMILES,melting point,"minimal effective concentration (IFN-α; Table 4, 18 to 24 hours)","minimal effective concentration (TNF-α; Table 4, 18 to 24 hours)",Maximal Response TNF (TNF-α),"minimal effective concentration (IFN-α; Table 3, 18 to 24 hours)","minimal effective concentration (TNF-α; Table 3, 18 to 24 hours)"
"CC(C)(Cn1c(CO)nc2c(N)nc3cccnc3c21)NS(C)(=O)=O [Example 2, N-[2-(4-Amino-2-hydroxymethyl-1H-imidazo[4,5-c][1,5]naphthyridin-1-yl)-1,1-dimethylethyl]methanesulfonamide]",268 to 271 °C,10 µM,30 µM,,,
"CS(=O)(=O)NCCCCn1c(CCO)nc2c(N)nc3cccnc3c21 [Example 3, N-{4-{4-Amino-2-(2-hydroxyethyl)-1H-imidazo[4,5-c][1,5]naphthyridin-1-yl]butyl}methanesulfonamide]",194 to 195 °C,1.11 µM,30 µM,,,
"CS(=O)(=O)NCCn1c(CO)nc2c(N)nc3cccnc3c21 [Example 4, N-[2-(4-Amino-2-hydroxymethyl-1H-imidazo[4,5-c][1,5]naphthyridin-1-yl)ethyl]methanesulfonamide]",239 to 242 °C,10 µM,> 30 µM,* (Below the experimental background of 40 pg/mL),,
"CS(=O)(=O)NCCn1c(CCO)nc2c(N)nc3cccnc3c21 [Example 5, N-{2-[4-Amino-2-(2-hydroxyethyl)-1H-imidazo[4,5-c][1,5]naphthyridin-1-yl]ethyl}methanesulfonamide]",136 to 138 °C,30 µM,> 30 µM,* (Below the experimental background of 40 pg/mL),,
"CC(C)(O)Cn1c(CO)nc2c(N)nc3cccnc3c21 [Example 6, 1-(4-Amino-2-hydroxymethyl-1H-imidazo[4,5-c][1,5]naphthyridin-1-yl)-2-methylpropan-2-ol]",235 to 237 °C,1.11 µM,10 µM,,1.11 µM,10 µM
"CC(C)(O)Cn1c(CCO)nc2c(N)nc3cccnc3c21 [Example 7, 1-[4-Amino-2-(2-hydroxyethyl)-1H-imidazo[4,5-c][1,5]naphthyridin 1-yl]-2-methylpropan-2-ol]",194 to 195 °C,3.33 µM,30 µM,,3.33 µM,30 µM
